Assay results as given in PubChem BioAssay (NCI).
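Results reflect a 48-hour exposure of cells in 96-well plates to compound at five concentrations. Here, GI50 denotes the concentration required for 50% inhibition of growth. TGI denotes the concentration required for complete inhibition of growth.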

What was measured:
Assay in all cases: inhibition of tumour cell growth, NCI panel, 48 h
A549 NSCLC = tested on: A549 NSCLC
HOP-92 NSCLC = tested on: HOP-92 NSCLC
SK-OV-3 ovarian = tested on: SK-OV-3 ovarian
UACC-62 melanoma = tested on: UACC-62 melanoma
MALME-3M melanoma = tested on: MALME-3M melanoma
NCI-H226 lung = tested on: NCI-H226 lung
MOLT-4 leukemia = tested on: MOLT-4 leukemia
HS 578T breast = tested on: HS 578T breast
NCI/ADR-RES ovarian = tested on: NCI/ADR-RES ovarian
MCF7 breast = tested on: MCF7 breast
K-562 leukemia = tested on: K-562 leukemia
RPMI-8226 leukemia = tested on: RPMI-8226 leukemia
SR leukemia = tested on: SR leukemia
IGROV1 ovarian = tested on: IGROV1 ovarian
DU-145 prostate = tested on: DU-145 prostate
T-47D breast = tested on: T-47D breast
EKVX NSCLC = tested on: EKVX NSCLC
MDA-MB-435 = tested on: MDA-MB-435
SNB-19 CNS = tested on: SNB-19 CNS
HOP-62 NSCLC = tested on: HOP-62 NSCLC
TK-10 renal = tested on: TK-10 renal
U251 CNS = tested on: U251 CNS
HCT-15 colon = tested on: HCT-15 colon
SW-620 colon = tested on: SW-620 colon
NCI-H460 lung = tested on: NCI-H460 lung
ACHN renal = tested on: ACHN renal
COLO 205 colon = tested on: COLO 205 colon
SK-MEL-5 melanoma = tested on: SK-MEL-5 melanoma
A498 renal = tested on: A498 renal
RXF 393 renal = tested on: RXF 393 renal
UO-31 renal = tested on: UO-31 renal
HL-60(TB) leukemia = tested on: HL-60(TB) leukemia
786-0 renal = tested on: 786-0 renal
UACC-257 melanoma = tested on: UACC-257 melanoma
HCC-2998 colon = tested on: HCC-2998 colon
SK-MEL-28 melanoma = tested on: SK-MEL-28 melanoma
KM12 colon = tested on: KM12 colon
SK-MEL-2 melanoma = tested on: SK-MEL-2 melanoma
HCT-116 colon = tested on: HCT-116 colon
SN12C renal = tested on: SN12C renal
PC-3 prostate = tested on: PC-3 prostate
BT-549 breast = tested on: BT-549 breast
NCI-H522 lung = tested on: NCI-H522 lung
SNB-75 CNS = tested on: SNB-75 CNS
OVCAR-5 ovarian = tested on: OVCAR-5 ovarian
OVCAR-3 ovarian = tested on: OVCAR-3 ovarian
CCRF-CEM leukemia = tested on: CCRF-CEM leukemia
M14 melanoma = tested on: M14 melanoma
SF-295 CNS = tested on: SF-295 CNS
LOX IMVI melanoma = tested on: LOX IMVI melanoma
SF-268 CNS = tested on: SF-268 CNS
OVCAR-4 ovarian = tested on: OVCAR-4 ovarian
MDA-MB-231 breast = tested on: MDA-MB-231 breast
HT29 colon = tested on: HT29 colon
NCI-H23 lung = tested on: NCI-H23 lung
SF-539 CNS = tested on: SF-539 CNS
OVCAR-8 ovarian = tested on: OVCAR-8 ovarian

Which GI50 (A549 NSCLC) does the source give for `O=c1cc(N2CCOCC2)oc2c(-c3ccc4c(c3)OCCO4)csc12` here?
The GI50 was 583 nM.

What about the TGI (A549 NSCLC) of the same molecule?
The TGI was 10500 nM.

And the GI50 (HOP-92 NSCLC)?
The GI50 was 214 nM.

What about the TGI (HOP-92 NSCLC) of the same molecule?
The TGI was 2560 nM.

What about the GI50 (SK-OV-3 ovarian) of the same molecule?
Its GI50 is 272 nM.

What about the TGI (SK-OV-3 ovarian) of the same molecule?
The TGI was 1200 nM.

And the GI50 (UACC-62 melanoma)?
Its GI50 is 325 nM.

What about the TGI (UACC-62 melanoma) of the same molecule?
Its TGI is 2060 nM.

And the GI50 (MALME-3M melanoma)?
Its GI50 is 224 nM.

What about the TGI (MALME-3M melanoma) of the same molecule?
The TGI was 1800 nM.

And the GI50 (NCI-H226 lung)?
The GI50 was 492 nM.

What about the TGI (NCI-H226 lung) of the same molecule?
Its TGI is 11700 nM.

And the GI50 (MOLT-4 leukemia)?
Its GI50 is 628 nM.

And the TGI (MOLT-4 leukemia)?
The TGI was 6240 nM.

And the GI50 (HS 578T breast)?
Its GI50 is 221 nM.

And the TGI (HS 578T breast)?
Its TGI is 1400 nM.

What about the GI50 (NCI/ADR-RES ovarian) of the same molecule?
The GI50 was 590 nM.

What about the TGI (NCI/ADR-RES ovarian) of the same molecule?
The TGI was 19700 nM.

What about the GI50 (MCF7 breast) of the same molecule?
The GI50 was 284 nM.

And the TGI (MCF7 breast)?
Its TGI is 11300 nM.

And the GI50 (K-562 leukemia)?
The GI50 was 1170 nM.

What about the TGI (K-562 leukemia) of the same molecule?
Its TGI is > 100000 nM.

What about the GI50 (RPMI-8226 leukemia) of the same molecule?
Its GI50 is 439 nM.

What about the TGI (RPMI-8226 leukemia) of the same molecule?
The TGI was 4660 nM.

What about the GI50 (SR leukemia) of the same molecule?
The GI50 was 519 nM.

And the TGI (SR leukemia)?
The TGI was 8570 nM.

What about the GI50 (IGROV1 ovarian) of the same molecule?
The GI50 was 262 nM.

And the TGI (IGROV1 ovarian)?
Its TGI is 1470 nM.

What about the GI50 (DU-145 prostate) of the same molecule?
Its GI50 is 730 nM.

And the TGI (DU-145 prostate)?
Its TGI is > 100000 nM.

And the GI50 (T-47D breast)?
The GI50 was 167 nM.

And the TGI (T-47D breast)?
The TGI was 643 nM.

And the GI50 (EKVX NSCLC)?
The GI50 was 333 nM.

What about the TGI (EKVX NSCLC) of the same molecule?
The TGI was 6150 nM.

What about the GI50 (MDA-MB-435) of the same molecule?
The GI50 was 428 nM.

What about the TGI (MDA-MB-435) of the same molecule?
The TGI was 33600 nM.

And the GI50 (SNB-19 CNS)?
Its GI50 is 1180 nM.

What about the TGI (SNB-19 CNS) of the same molecule?
The TGI was 42800 nM.

What about the GI50 (HOP-62 NSCLC) of the same molecule?
Its GI50 is 302 nM.

What about the TGI (HOP-62 NSCLC) of the same molecule?
The TGI was 5330 nM.

What about the GI50 (TK-10 renal) of the same molecule?
Its GI50 is 257 nM.

What about the TGI (TK-10 renal) of the same molecule?
The TGI was 1290 nM.

And the GI50 (U251 CNS)?
The GI50 was 1080 nM.

What about the TGI (U251 CNS) of the same molecule?
Its TGI is 35000 nM.

What about the GI50 (HCT-15 colon) of the same molecule?
Its GI50 is 471 nM.

What about the TGI (HCT-15 colon) of the same molecule?
Its TGI is > 40800 nM.

And the GI50 (SW-620 colon)?
Its GI50 is 978 nM.

What about the TGI (SW-620 colon) of the same molecule?
Its TGI is 16300 nM.

What about the GI50 (NCI-H460 lung) of the same molecule?
The GI50 was 658 nM.

And the TGI (NCI-H460 lung)?
Its TGI is 14200 nM.

And the GI50 (ACHN renal)?
The GI50 was 339 nM.

What about the TGI (ACHN renal) of the same molecule?
The TGI was 10700 nM.

And the GI50 (COLO 205 colon)?
The GI50 was 417 nM.

What about the TGI (COLO 205 colon) of the same molecule?
Its TGI is 2740 nM.

What about the GI50 (SK-MEL-5 melanoma) of the same molecule?
The GI50 was 590 nM.

What about the TGI (SK-MEL-5 melanoma) of the same molecule?
The TGI was 2160 nM.

What about the GI50 (A498 renal) of the same molecule?
Its GI50 is 102 nM.

And the TGI (A498 renal)?
The TGI was 662 nM.

What about the GI50 (RXF 393 renal) of the same molecule?
The GI50 was 405 nM.

What about the TGI (RXF 393 renal) of the same molecule?
Its TGI is 3480 nM.

And the GI50 (UO-31 renal)?
The GI50 was 167 nM.

What about the TGI (UO-31 renal) of the same molecule?
Its TGI is 1790 nM.

And the GI50 (HL-60(TB) leukemia)?
Its GI50 is 298 nM.

And the TGI (HL-60(TB) leukemia)?
Its TGI is 2890 nM.

And the GI50 (786-0 renal)?
Its GI50 is 352 nM.

What about the TGI (786-0 renal) of the same molecule?
Its TGI is 6310 nM.

And the GI50 (UACC-257 melanoma)?
The GI50 was 608 nM.

And the TGI (UACC-257 melanoma)?
Its TGI is 7950 nM.

What about the GI50 (HCC-2998 colon) of the same molecule?
Its GI50 is 746 nM.

And the TGI (HCC-2998 colon)?
Its TGI is 8790 nM.

And the GI50 (SK-MEL-28 melanoma)?
The GI50 was 579 nM.

What about the TGI (SK-MEL-28 melanoma) of the same molecule?
The TGI was 11400 nM.

And the GI50 (KM12 colon)?
The GI50 was 1080 nM.

What about the TGI (KM12 colon) of the same molecule?
The TGI was > 38600 nM.

What about the GI50 (SK-MEL-2 melanoma) of the same molecule?
Its GI50 is 798 nM.

What about the TGI (SK-MEL-2 melanoma) of the same molecule?
Its TGI is 5030 nM.

What about the GI50 (HCT-116 colon) of the same molecule?
Its GI50 is 775 nM.

And the TGI (HCT-116 colon)?
The TGI was 11100 nM.

And the GI50 (SN12C renal)?
Its GI50 is 484 nM.

And the TGI (SN12C renal)?
Its TGI is > 100000 nM.

And the GI50 (PC-3 prostate)?
Its GI50 is 319 nM.

And the TGI (PC-3 prostate)?
Its TGI is > 80200 nM.

What about the GI50 (BT-549 breast) of the same molecule?
Its GI50 is 332 nM.

What about the TGI (BT-549 breast) of the same molecule?
The TGI was 4100 nM.

What about the GI50 (NCI-H522 lung) of the same molecule?
Its GI50 is 282 nM.

What about the TGI (NCI-H522 lung) of the same molecule?
Its TGI is 4160 nM.

What about the GI50 (SNB-75 CNS) of the same molecule?
Its GI50 is 127 nM.

What about the TGI (SNB-75 CNS) of the same molecule?
The TGI was 765 nM.

And the GI50 (OVCAR-5 ovarian)?
Its GI50 is 445 nM.

What about the TGI (OVCAR-5 ovarian) of the same molecule?
Its TGI is > 62900 nM.

And the GI50 (OVCAR-3 ovarian)?
Its GI50 is 526 nM.

And the TGI (OVCAR-3 ovarian)?
The TGI was 11300 nM.

What about the GI50 (CCRF-CEM leukemia) of the same molecule?
The GI50 was 1490 nM.

And the TGI (CCRF-CEM leukemia)?
The TGI was > 61900 nM.

And the GI50 (M14 melanoma)?
The GI50 was 451 nM.

What about the TGI (M14 melanoma) of the same molecule?
The TGI was 4860 nM.

And the GI50 (SF-295 CNS)?
The GI50 was 307 nM.

What about the TGI (SF-295 CNS) of the same molecule?
The TGI was 3670 nM.

What about the GI50 (LOX IMVI melanoma) of the same molecule?
Its GI50 is 425 nM.

And the TGI (LOX IMVI melanoma)?
Its TGI is 2820 nM.

And the GI50 (SF-268 CNS)?
The GI50 was 687 nM.

What about the TGI (SF-268 CNS) of the same molecule?
Its TGI is 21600 nM.

And the GI50 (OVCAR-4 ovarian)?
The GI50 was 413 nM.

What about the TGI (OVCAR-4 ovarian) of the same molecule?
The TGI was > 61900 nM.

What about the GI50 (MDA-MB-231 breast) of the same molecule?
The GI50 was 382 nM.

What about the TGI (MDA-MB-231 breast) of the same molecule?
The TGI was 14500 nM.

What about the GI50 (HT29 colon) of the same molecule?
Its GI50 is 379 nM.

What about the TGI (HT29 colon) of the same molecule?
The TGI was 12200 nM.

What about the GI50 (NCI-H23 lung) of the same molecule?
The GI50 was 760 nM.

What about the TGI (NCI-H23 lung) of the same molecule?
The TGI was 17300 nM.

What about the GI50 (SF-539 CNS) of the same molecule?
Its GI50 is 425 nM.

What about the TGI (SF-539 CNS) of the same molecule?
The TGI was 3610 nM.

And the GI50 (OVCAR-8 ovarian)?
The GI50 was 498 nM.

What about the TGI (OVCAR-8 ovarian) of the same molecule?
Its TGI is 12000 nM.
